Test results from ChEMBL document CHEMBL1147261, “Xanthanolides, germacranolides, and other constituents from Carpesium longifolium” (J Nat Prod, 2003).
In brackets after ≈: the same amount, converted by molar mass.

Key:
[1] = Cytotoxicity against human HO8910 cells by MTT assay; type: functional, cell-based; settings: HO-8910
SMMC-7721 = test: Cytotoxicity against human SMMC7721 cells by MTT assay; type: functional, cell-based

SMILES | IC50 [1] [µg/mL] | IC50 (SMMC-7721) [µg/mL]
C=C1C(=O)O[C@@H]2C3O[C@]3(C)CC/C=C(\C)CC[C@@H]12 (stereo partly drawn) | 1.37 (≈ 5.52 µM) | 4.2 (≈ 16.9 µM)
COc1ccc(C2CC(=O)c3c(O)cc(OC)cc3O2)cc1 (stereo not drawn) | > 200 | > 200
C/C1=C\CC[C@@]2(C)O[C@@H]2[C@H]2OC(=O)[C@@H](C)[C@@H]2CC1 [11BETA,13-DIHYDRO-PARTHENOLIDE] | 158 (≈ 631 µM) | > 200
CC[C@]1(O)C[C@H]2CN(CCc3c([nH]c4ccccc34)[C@@](C(=O)OC)(c3cc4c(cc3OC)N(C=O)[C@H]3[C@@](O)(C(=O)OC)[C@H](OC(C)=O)[C@]5(CC)C=CCN6CC[C@]43[C@@H]65)C2)C1 [VINCRISTINE] | 1.37 (≈ 1.66 µM) | 20.7 (≈ 25.1 µM)
